This series is described as follows: RP, Waters ACQUITY UPLC BEH C18, 100 × 2.1 mm, 1.7 µm, 60 °C, 0.3 mL/min, estimated dead time 0.73 min; A: water + 0.01% formic acid; B: methanol + 0.01% formic acid; gradient (min/%B) 0/10 14/90 16/90. The note with it: stereoisomer not certain.
For the molecule `CCOC(=O)C(CCc1ccccc1)NC(C)C(=O)N1CCCC1C(=O)O` (stereo unspecified), the LC retention time is 7.47 min.

In the case of `CCOC(=O)CC(SP(=S)(OC)OC)C(=O)OCC` (stereo unspecified), the LC retention time is 11 min.

For `Cc1cc(C)nc(NS(=O)(=O)c2ccc(N)cc2)n1`, the LC retention time was 3.59 min.

For `CC1CCCC(=O)CCCC=Cc2cc(O)cc(O)c2C(=O)O1` (stereo unspecified), the LC retention time is 10.3 min.

Take `O=C1OCCN1N=Cc1ccc([N+](=O)[O-])o1`: the LC retention time was 2.96 min.

Take `CC12CCC3c4ccc(O)cc4CCC3C1CCC2=O` (stereo unspecified): the LC retention time was 9.99 min.

Source of the values: the RepoRT retention time repository (doi:10.1016/j.chroma.2012.12.030).
